Results from PubChem BioAssay AID179 (DTP/NCI, 2004).
Calls of active or inactive are those of the source.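 The calls were made as follows: active = compounds giving half or more protection of infected cells from virus-caused growth loss, again on retest; inactive = the rest.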

System: CEM cells HIV-1 protection, formazan growth assay
Experiment: NCI AIDS Antiviral Assay
Details: for IC50: measured here: growth of uninfected CEM cells
Outline: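 Soluble formazan readout of cell growth; CEM cells ± HIV-1; 5 drug concs. ≥50% protection → retest; ≥50% again = moderately active; reproducible 100% = confirmed active.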

Compound	outcome	EC50	IC50
CCOC(=O)N1N=NC2C3OC(C[C@@]3(C#N)OC(C)=O)[C@H]21 (some centres undefined)	inactive		
COc1cc(OC)c2nc3ccccc3c(NCCC[N+](C)(C)[O-])c2c1[N+](=O)[O-]		> 200 µM	132 µM
COc1cc(C2c3cc4c(cc3OC(NNc3ccccc3)C2C)OCO4)cc(OC)c1O (centres undefined)	inactive		
COc1nc2c(c(O)c(C)c(=O)n2OC2OC(COC(C)=O)C(OC(C)=O)C(OC(C)=O)C2OC(C)=O)c(=O)n1C (centres undefined)		> 61.7 µM	> 61.7 µM
c1ccc2c(c1)c(N1CCCCC1)cc1nc3c(cc(N4CCCCC4)c4ccccc43)nc12		> 100 µM	> 100 µM
Cn1c2ccc([N+](=O)[O-])cc2c(=O)n1Cc1ccccc1F		> 200 µM	58.9 µM
CN(CCN1C(=O)c2cccc3cc([N+](=O)[O-])cc(c23)C1=O)CCN1C(=O)c2cccc3cc([N+](=O)[O-])cc(c23)C1=O		> 9.12 µM	
O=c1[nH]c2ccc(C(F)(F)F)cc2nc1Cc1ccccc1		> 200 µM	74.1 µM
N=c1c2ccccc2nnn1-c1ccccc1[N+](=O)[O-]	inactive		
COc1cc2c(oc(=O)c3c4occc4cc(OC)c23)c2cccc(O)c12		> 1.45 µM	> 1.45 µM
O=C1c2ccccc2C(=O)N1C/C=N/NS(=O)(=O)c1ccc(Cl)cc1		> 95.5 µM	> 95.5 µM
CC1(C)C2CCC(CN=C(N)CSS(=O)(=O)O)C1C2 (centres undefined)		> 200 µM	33.1 µM
CC(C)(C)OC(=O)NC(Cc1ccccc1)/C(O)=C(\C#N)c1ccc([N+](=O)[O-])cc1 (centres undefined)		> 200 µM	83.2 µM
O=C(Nc1ccc(Cl)cc1)c1cc(S(=O)(=O)NC2=NC(c3ccccc3)c3cc(Cl)ccc3N2)c(SSc2cc(Cl)c(C(=O)Nc3ccc(Cl)cc3)cc2S(=O)(=O)NC2=NC(c3ccccc3)c3cc(Cl)ccc3N2)cc1Cl (centres undefined)		> 200 µM	> 200 µM
O=S(O)CCCCCSSc1ccc(Cl)cc1	inactive		
CC1Cc2c(Br)nc(N)nc2NC1=O (centres undefined)		> 200 µM	> 200 µM
O=S(=O)(O)c1cc(O)c2c(O)cc(S(=O)(=O)O)cc2c1		347 µM	550 µM
S=C(SSC(=S)N1CCCCC1)N1CCCCC1		> 200 µM	29.5 µM
CCOC(=O)c1ccc(C(=O)/C(C(C)=O)=C2\CCCN2C)n1C		89.1 µM	174 µM
C[C@]12c3c4cc(NC(=O)C(=O)NCc5ccc(-c6ccccn6)nc5)cc3Oc3cc(NC(=O)C(=O)NCc5ccc(-c6ccccn6)nc5)cc(c31)OC1C=C(NC(=O)C(=O)NCc3ccc(-c5ccccn5)nc3)C=C(O4)C12 (some centres undefined)		> 100 µM	21.4 µM
COC(=O)C(Cc1c[nH]c2ccccc12)NP(=O)(O)OCC1OC(n2cc(I)c(=O)[nH]c2=O)CC1O (centres undefined)		> 200 µM	> 200 µM
CNS(=O)(=O)NN(C)S(=O)(=O)c1ccc(C)cc1		> 617 µM	> 200 µM
CC[C@@]1(OC(=O)CCC(=O)O)C(=O)OCc2c1cc1n(c2=O)Cc2cc3ccccc3nc2-1		> 10 µM	0.00708 µM
O=c1c2c(oc3cc(OCC4CO4)ccc13)CCC2 (centres undefined)		> 200 µM	50.1 µM
N#CS/C(Cl)=C(/C(Cl)=C(Cl)Cl)[N+](=O)[O-]	inactive		
COC(=O)C(Nc1ccc(OC)cc1)c1ccccc1 (centres undefined)		> 200 µM	148 µM
c1ccc(-n2cnnc2-c2nsc3ccccc23)cc1		> 93.3 µM	> 93.3 µM

Compound	outcome	EC50	IC50
CC(C)(C)C1=C(Br)C(O)(C(C)(C)C)OP1(=O)c1ccccc1 (centres undefined)		> 200 µM	151 µM
Cc1cc2c(CC(=O)O)[nH]nc2c(C(=O)O)c1C		> 1000 µM	> 1000 µM
N#C/C(=C/NC(=S)Nc1ccccc1)C(N)=O		> 200 µM	> 200 µM
C=C(c1ccccc1)[C@@]1(O)CC[C@@H]1N(CC#N)Cc1ccccc1	inactive		
O=[N+]([O-])c1ccc(N/N=C/C(c2ccccc2)c2ccsc2)c([N+](=O)[O-])c1 (centres undefined)		> 200 µM	19.5 µM
CC(=O)N[C@]1(C)CCC2C[C@H]1C(C)=NC2(C)C		> 1050 µM	> 1050 µM
COC(=O)C(/C(=N\NC(N)=S)C(=O)Nc1ccccc1[N+](=O)[O-])c1cnc2ccccc2n1 (centres undefined)		> 145 µM	> 145 µM
O=C(Sc1sc(=S)sc1SC(=O)c1ccccc1)c1ccccc1		> 17.8 µM	> 17.8 µM
O=S(=O)(c1cc(Cl)ccc1Cl)N1CCN(c2cccc(Cl)c2)CC1	inactive		
O=C1NC(=S)NNC12c1ccccc1-c1ccccc12		> 200 µM	33.9 µM
C1CCN2CC3CC(CN4CCCCC34)C2C1 (centres undefined)		> 759 µM	> 759 µM
CC(C)c1cc2c(O)c(c1)Cc1cc(C(C)C)cc(c1O)Cc1cc(C(C)C)cc(c1O)Cc1cc(C(C)C)cc(c1O)Cc1cc(C(C)C)cc(c1O)Cc1cc(C(C)C)cc(c1O)C2		> 14.5 µM	> 14.5 µM
O=C1c2ccccc2C(=O)N1CCN(CCN1C(=O)c2ccccc2C1=O)Cn1cccn1	inactive		
Cc1ccc(NC(=O)CCC(=O)C2Cc3ccccc3C2=O)cc1C (centres undefined)		> 741 µM	724 µM
CC(=O)Oc1ccccc1[C@H]1CC(=O)C[C@H](c2ccccc2OC(C)=O)C12C(=O)c1ccccc1C2=O		> 200 µM	46.8 µM
CCOC(=O)/C(C(=S)NC)=C(/N)N1CCCC1		> 200 µM	> 200 µM
CC(=O)C1CCC2C3CC4OCC5(CCC(O)CC45Br)C3CCC12C (centres undefined)		> 200 µM	40.7 µM
CSc1nc(NC2OCC(OC(C)=O)C(OC(C)=O)C2OC(C)=O)c2c(n1)OCC2=O (centres undefined)	inactive		
CC1(C)[C@@H]2C[C@H]1C(Cc1ccc(C[C@H]3c4cc(-c5ccccn5)ncc4[C@H]4C[C@@H]3C4(C)C)cc1)c1cc(-c3ccccn3)ncc12 (some centres undefined)		> 20 µM	0.813 µM
Cc1c(CN2CCCC2)c(O)c2c(=O)c3c(O)c(CN4CCCC4)c(O)c4c5c(O)c(CN6CCCC6)c(O)c6c(=O)c7c(O)c(CN8CCCC8)c(C)c8c1c2c(c34)c(c78)c65		> 17.8 µM	> 17.8 µM
CNCCN=c1ccc2c3c1c(O)c1c(O)ccc(=O)c1c3[nH]n2CCNCCO		> 112 µM	0.347 µM
CC(/C=C/NNC1=NC(c2ccccc2)C(c2ccccc2)=NN1)Sc1ccccc1N (centres undefined)		> 81.3 µM	1.45 µM
O=c1[nH]ncc(N/N=C(/C=C/c2ccc(C/C(=N/Nc3cn[nH]c(=O)c3Cl)c3ccccc3)cc2)c2ccccc2)c1Cl	inactive		
COc1ccc2c(c1)OCCCN(C)OC2c1ccccc1 (centres undefined)	inactive		
Cc1cn(C2C/C(=N\O)C(CO)O2)c(=O)[nH]c1=O (centres undefined)		12.6 µM	174 µM
Cc1cc(Br)ccc1N=NC1C(=O)ON=C1c1ccccc1 (centres undefined)	inactive		
CCCCCCCCCCCCC(Br)C(=O)OCC1OC(n2cc(C)c(=O)[nH]c2=O)CC1N=[N+]=[N-] (centres undefined)		0.0977 µM	3.39 µM

Compound	outcome	EC50	IC50
COc1ccc(-c2c(O)c3cccc(-c4ccccc4)c3oc2=O)cc1		> 200 µM	93.3 µM
O=C(CC1(O)C(=O)Nc2ccc(Br)cc21)c1ccc(Cl)cc1Cl (centres undefined)		> 162 µM	95.5 µM
O=c1n(Cc2ccccc2)c2ccccc2n1CC1CS1 (centres undefined)		> 45.7 µM	19.5 µM
O=C1c2c(c3c4ccccc4n(COCCO)c3c3[nH]c4ccccc4c23)C(=O)N1Cc1ccccc1		> 15.8 µM	6.92 µM
Cn1cc(NC(=O)c2nc(NC(=O)c3nc(NC(=O)/C=C/C(=O)Nc4cn(C)c(C(=O)Nc5cn(C)c(C(=O)Nc6cn(C)c(C(=O)NCCC(=N)N)n6)n5)n4)cn3C)cn2C)nc1C(=O)NCCC(=N)N		> 50.1 µM	8.51 µM
CON(C)C(=O)C(Cc1ccccc1)NC(=O)OCc1ccccc1 (centres undefined)		> 200 µM	182 µM
NC(=O)OCC(COc1ccc(Cl)cc1)OC(=O)c1cc([N+](=O)[O-])cc([N+](=O)[O-])c1 (centres undefined)		> 562 µM	398 µM
COC(=O)C(Cc1nc2ccccc2[nH]c1=O)C(=O)C(=O)Nc1ccc(OC)cc1[N+](=O)[O-] (centres undefined)		> 398 µM	> 398 µM
CCn1c2ccccc2c2ccc3c(c21)C(=O)C=CC3=O		> 26.3 µM	> 26.3 µM
Cc1ccc([N+](=O)[O-])c2c(NCCNC(=O)Cn3ccnc3[N+](=O)[O-])ccnc12		> 100 µM	79.4 µM
N#CC(C#N)=Cc1ccc(Oc2ccccc2)cc1		> 21.4 µM	16.6 µM
O=S(Cc1ccccc1)/C(=C/n1c(=S)[nH]c2ccccc21)c1ccccc1 (centres undefined)		> 200 µM	> 200 µM
COc1cc(/C=C2/N=C(c3ccccc3)N(C3=NNC4(C(=O)N3)c3ccccc3-c3ccccc34)NC2=O)ccc1O		> 100 µM	75.9 µM
C(/C=C/Nc1ccc(Oc2ccccc2)cc1)=Nc1ccc(Oc2ccccc2)cc1		> 200 µM	9.33 µM
CN(C)S(=O)(=O)N1C(=O)c2ccccc2C1=O		> 102 µM	> 102 µM
COC(=O)c1cc(C(=CC(=O)O)c2cc(Cl)c(OC)c(C(=O)OC)c2)cc(Cl)c1OC		> 200 µM	95.5 µM
O=C1c2c(O)cccc2C(C(=O)CCCCC(=O)C2c3cccc(O)c3C(=O)c3c(O)cccc32)c2cccc(O)c21		> 6.76 µM	> 6.76 µM
CCOC(=O)C(=O)Nc1c(CC)cccc1C(C)CC (centres undefined)		> 646 µM	> 646 µM
CC(=O)[CH-]C(C)=O.CC(=O)[CH-]C(C)=O.COc1cc2cc(C(=O)N3CC(CCl)c4ccc(NCCN)cc43)[nH]c2c(OC)c1OC.[Cr+5].[O-][Cl+3]([O-])([O-])[O-] (centres undefined)		> 1 µM	0.479 µM
CC(=O)NCCCCNCCCNC(C)=O		> 200 µM	> 200 µM
CSc1cc(Cl)c(C(=O)Nc2ccccc2)cc1S(=O)(=O)n1cc[nH]c1=O		> 200 µM	> 200 µM
COc1cc2c3cc1Oc1c(OC)c(OC)cc4c1C(Cc1ccc(O)c(c1)Oc1ccc(cc1)CC3N(C)CC2)N(C)CC4 (centres undefined)	inactive		
CC(=O)Nc1cc2c(cc1O)CC[C@@H]1[C@@H]2CC[C@]2(C)[C@@H](O)CC[C@@H]12		> 200 µM	20.9 µM
COc1ccc(-c2cc(C3CC3)nc(SCC(=O)O)c2C#N)cc1		> 200 µM	39.8 µM
O=C(O)c1ccccc1C(=O)NC(Cc1cnc[nH]1)C(=O)O (centres undefined)		> 200 µM	> 200 µM
